#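 1) Cells in 96-well plates. 2) Compound, 48 h, 5 concentrations. 3) Linear interpolation between surrounding doses. 4) Unreached endpoint = highest concentration. TGI: total growth inhibition.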
# Experiments:
# Experiment in all cases: NCI-60 cell line screen, 48 h
# 786-0 renal = test system: 786-0 renal
# A498 renal = test system: A498 renal
# A549 NSCLC = test system: A549 NSCLC
# ACHN renal = test system: ACHN renal
# BT-549 breast = test system: BT-549 breast
# CAKI-1 renal = test system: CAKI-1 renal
# CCRF-CEM leukemia = test system: CCRF-CEM leukemia
# COLO 205 colon = test system: COLO 205 colon
# DU-145 prostate = test system: DU-145 prostate
# EKVX NSCLC = test system: EKVX NSCLC
# HCC-2998 colon = test system: HCC-2998 colon
# HCT-116 colon = test system: HCT-116 colon
# HCT-15 colon = test system: HCT-15 colon
# HL-60(TB) leukemia = test system: HL-60(TB) leukemia
# HOP-62 NSCLC = test system: HOP-62 NSCLC
# HOP-92 NSCLC = test system: HOP-92 NSCLC
# HS 578T breast = test system: HS 578T breast
# HT29 colon = test system: HT29 colon
# IGROV1 ovarian = test system: IGROV1 ovarian
# K-562 leukemia = test system: K-562 leukemia
# KM12 colon = test system: KM12 colon
# LOX IMVI melanoma = test system: LOX IMVI melanoma
# M14 melanoma = test system: M14 melanoma
# MCF7 breast = test system: MCF7 breast
# MDA-MB-231 breast = test system: MDA-MB-231 breast
# MDA-MB-435 = test system: MDA-MB-435
# MDA-N = test system: MDA-N
# MOLT-4 leukemia = test system: MOLT-4 leukemia
# NCI-H226 lung = test system: NCI-H226 lung
# NCI-H460 lung = test system: NCI-H460 lung
# NCI-H522 lung = test system: NCI-H522 lung
# NCI/ADR-RES ovarian = test system: NCI/ADR-RES ovarian
# OVCAR-3 ovarian = test system: OVCAR-3 ovarian
# OVCAR-4 ovarian = test system: OVCAR-4 ovarian
# OVCAR-5 ovarian = test system: OVCAR-5 ovarian
# OVCAR-8 ovarian = test system: OVCAR-8 ovarian
# PC-3 prostate = test system: PC-3 prostate
# RPMI-8226 leukemia = test system: RPMI-8226 leukemia
# RXF 393 renal = test system: RXF 393 renal
# SF-268 CNS = test system: SF-268 CNS
# SF-295 CNS = test system: SF-295 CNS
# SF-539 CNS = test system: SF-539 CNS
# SK-MEL-2 melanoma = test system: SK-MEL-2 melanoma
# SK-MEL-28 melanoma = test system: SK-MEL-28 melanoma
# SK-MEL-5 melanoma = test system: SK-MEL-5 melanoma
# SK-OV-3 ovarian = test system: SK-OV-3 ovarian
# SN12C renal = test system: SN12C renal
# SNB-19 CNS = test system: SNB-19 CNS
# SNB-75 CNS = test system: SNB-75 CNS
# SR leukemia = test system: SR leukemia
# SW-620 colon = test system: SW-620 colon
# T-47D breast = test system: T-47D breast
# TK-10 renal = test system: TK-10 renal
# U251 CNS = test system: U251 CNS
# UACC-257 melanoma = test system: UACC-257 melanoma
# UACC-62 melanoma = test system: UACC-62 melanoma
# UO-31 renal = test system: UO-31 renal
# MALME-3M melanoma = test system: MALME-3M melanoma
# NCI-H23 lung = test system: NCI-H23 lung
structure (smiles),measurement,setting,value
Nc1nncc2[nH]cnc12,TGI,786-0 renal,> 100 µM
same,TGI,A498 renal,> 100 µM
same,TGI,A549 NSCLC,> 100 µM
same,TGI,ACHN renal,> 100 µM
same,TGI,BT-549 breast,77.4 µM
same,TGI,CAKI-1 renal,> 100 µM
same,TGI,CCRF-CEM leukemia,20.7 µM
same,TGI,COLO 205 colon,> 60.9 µM
same,TGI,DU-145 prostate,> 100 µM
same,TGI,EKVX NSCLC,> 100 µM
same,TGI,HCC-2998 colon,> 100 µM
same,TGI,HCT-116 colon,> 100 µM
same,TGI,HCT-15 colon,> 100 µM
same,TGI,HL-60(TB) leukemia,42.9 µM
same,TGI,HOP-62 NSCLC,> 100 µM
same,TGI,HOP-92 NSCLC,> 100 µM
same,TGI,HS 578T breast,> 100 µM
same,TGI,HT29 colon,> 100 µM
same,TGI,IGROV1 ovarian,> 100 µM
same,TGI,K-562 leukemia,> 100 µM
same,TGI,KM12 colon,> 100 µM
same,TGI,LOX IMVI melanoma,> 100 µM
same,TGI,M14 melanoma,> 100 µM
same,TGI,MCF7 breast,> 31.6 µM
same,TGI,MDA-MB-231 breast,> 100 µM
same,TGI,MDA-MB-435,> 100 µM
same,TGI,MDA-N,> 100 µM
same,TGI,MOLT-4 leukemia,> 45.3 µM
same,TGI,NCI-H226 lung,> 100 µM
same,TGI,NCI-H460 lung,> 100 µM
same,TGI,NCI-H522 lung,> 100 µM
same,TGI,NCI/ADR-RES ovarian,> 100 µM
same,TGI,OVCAR-3 ovarian,> 100 µM
same,TGI,OVCAR-4 ovarian,> 100 µM
same,TGI,OVCAR-5 ovarian,> 100 µM
same,TGI,OVCAR-8 ovarian,> 79.8 µM
same,TGI,PC-3 prostate,> 100 µM
same,TGI,RPMI-8226 leukemia,> 56 µM
same,TGI,RXF 393 renal,> 100 µM
same,TGI,SF-268 CNS,> 100 µM
same,TGI,SF-295 CNS,> 100 µM
same,TGI,SF-539 CNS,> 100 µM
same,TGI,SK-MEL-2 melanoma,> 100 µM
same,TGI,SK-MEL-28 melanoma,> 100 µM
same,TGI,SK-MEL-5 melanoma,> 100 µM
same,TGI,SK-OV-3 ovarian,> 100 µM
same,TGI,SN12C renal,> 100 µM
same,TGI,SNB-19 CNS,> 100 µM
same,TGI,SNB-75 CNS,> 100 µM
same,TGI,SR leukemia,> 100 µM
same,TGI,SW-620 colon,> 100 µM
same,TGI,T-47D breast,> 100 µM
same,TGI,TK-10 renal,> 100 µM
same,TGI,U251 CNS,> 100 µM
same,TGI,UACC-257 melanoma,> 100 µM
same,TGI,UACC-62 melanoma,> 100 µM
same,TGI,UO-31 renal,> 100 µM
CCOC(=O)/C=C(/C=C\COC1CCCCO1)c1ccccc1 (centres undefined),TGI,786-0 renal,62.7 µM
same,TGI,A498 renal,> 100 µM
same,TGI,A549 NSCLC,> 100 µM
same,TGI,ACHN renal,> 100 µM
same,TGI,BT-549 breast,> 100 µM
same,TGI,CAKI-1 renal,> 100 µM
same,TGI,CCRF-CEM leukemia,> 100 µM
same,TGI,COLO 205 colon,> 100 µM
same,TGI,DU-145 prostate,> 100 µM
same,TGI,EKVX NSCLC,> 100 µM
same,TGI,HCC-2998 colon,> 100 µM
same,TGI,HCT-116 colon,29.5 µM
same,TGI,HCT-15 colon,> 100 µM
same,TGI,HL-60(TB) leukemia,44.2 µM
same,TGI,HOP-62 NSCLC,> 100 µM
same,TGI,HS 578T breast,> 100 µM
same,TGI,HT29 colon,29.2 µM
same,TGI,IGROV1 ovarian,> 100 µM
same,TGI,K-562 leukemia,> 100 µM
same,TGI,KM12 colon,79.3 µM
same,TGI,LOX IMVI melanoma,30.9 µM
same,TGI,M14 melanoma,> 100 µM
same,TGI,MALME-3M melanoma,> 100 µM
same,TGI,MCF7 breast,> 100 µM
same,TGI,MDA-MB-231 breast,> 100 µM
same,TGI,MDA-MB-435,> 100 µM
same,TGI,MDA-N,> 100 µM
same,TGI,MOLT-4 leukemia,80.3 µM
same,TGI,NCI-H226 lung,> 100 µM
same,TGI,NCI-H23 lung,> 100 µM
same,TGI,NCI-H460 lung,> 100 µM
same,TGI,NCI-H522 lung,83.5 µM
same,TGI,NCI/ADR-RES ovarian,95.7 µM
same,TGI,OVCAR-3 ovarian,80.8 µM
same,TGI,OVCAR-4 ovarian,> 100 µM
same,TGI,OVCAR-5 ovarian,> 100 µM
same,TGI,OVCAR-8 ovarian,59.9 µM
same,TGI,PC-3 prostate,> 100 µM
same,TGI,RPMI-8226 leukemia,> 100 µM
same,TGI,RXF 393 renal,55.3 µM
same,TGI,SF-268 CNS,> 100 µM
same,TGI,SF-295 CNS,76.1 µM
same,TGI,SK-MEL-2 melanoma,> 100 µM
same,TGI,SK-MEL-28 melanoma,85.7 µM
same,TGI,SK-MEL-5 melanoma,> 100 µM
same,TGI,SK-OV-3 ovarian,> 100 µM
same,TGI,SN12C renal,49.5 µM
same,TGI,SNB-19 CNS,> 100 µM
same,TGI,SNB-75 CNS,69.7 µM
same,TGI,SR leukemia,53.8 µM
same,TGI,SW-620 colon,80.4 µM
same,TGI,T-47D breast,72.3 µM
same,TGI,TK-10 renal,> 100 µM
same,TGI,U251 CNS,96 µM
same,TGI,UACC-257 melanoma,> 100 µM
same,TGI,UACC-62 melanoma,88.6 µM
same,TGI,UO-31 renal,> 100 µM
